# Measured values reported in PubChem BioAssay AID1963832 (Molecular Pharmacology Branch, DTP, NCI, 2024).
# System: 885724-159-R-J1-PDC complex spheroid viability
# Assay: Anticancer human tumor 885724-159-R-J1-PDC patient-derived pancreatic adenocarcinoma cell line growth inhibition [POLQ]
# Settings: for IC50: curve of first compound; for viability, T/C: stronger effect = lower value
# Summary of the method: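 Growth inhibition in 3D: complex spheroids (tumor PDC, HUVEC, MSC) treated with POLQ inhibitor combinations; where Cmax unknown, highest tested concentration 10 microM, except SN-38 at 1 microM.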
# [1] = second compound 0.0316 µM, first compound 0.0316 µM
# [2] = second compound 0.0316 µM, first compound 0.1 µM
# [3] = second compound 0.0316 µM, first compound 0.316 µM
# [4] = second compound 0.0316 µM, first compound 1 µM
# [5] = second compound 0.0316 µM, first compound 3.16 µM
# [6] = second compound 0.0316 µM, first compound 10 µM
# [7] = second compound 0.1 µM, first compound 0.0316 µM
# [8] = second compound 0.1 µM, first compound 0.1 µM
# [9] = second compound 0.1 µM, first compound 0.316 µM
# [10] = second compound 0.1 µM, first compound 1 µM
# [11] = second compound 0.1 µM, first compound 3.16 µM
# [12] = second compound 0.1 µM, first compound 10 µM
# [13] = second compound 0.316 µM, first compound 0.0316 µM
# [14] = second compound 0.316 µM, first compound 0.1 µM
# [15] = second compound 0.316 µM, first compound 0.316 µM
# [16] = second compound 0.316 µM, first compound 1 µM
# [17] = second compound 0.316 µM, first compound 3.16 µM
# [18] = second compound 0.316 µM, first compound 10 µM
# [19] = second compound 1 µM, first compound 0.0316 µM
# [20] = second compound 1 µM, first compound 0.1 µM
# [21] = second compound 1 µM, first compound 0.316 µM
# [22] = second compound 1 µM, first compound 1 µM
# [23] = second compound 1 µM, first compound 3.16 µM
# [24] = second compound 1 µM, first compound 10 µM
# [25] = second compound 3.16 µM, first compound 0.0316 µM
# [26] = second compound 3.16 µM, first compound 0.1 µM
# [27] = second compound 3.16 µM, first compound 0.316 µM
# [28] = second compound 3.16 µM, first compound 1 µM
# [29] = second compound 3.16 µM, first compound 3.16 µM
# [30] = second compound 3.16 µM, first compound 10 µM
# [31] = second compound 10 µM, first compound 0.0316 µM
# [32] = second compound 10 µM, first compound 0.1 µM
# [33] = second compound 10 µM, first compound 0.316 µM
# [34] = second compound 10 µM, first compound 1 µM
# [35] = second compound 10 µM, first compound 3.16 µM
# [36] = second compound 10 µM, first compound 10 µM
# 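Note: spheroids exposed to compounds for 7 days.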
smiles,measurement,setting,value
COc1cc(C2c3cc4c(cc3C(OC3OC5COC(C)OC5C(O)C3O)C3COC(=O)C23)OCO4)cc(OC)c1O (stereo unspecified) + COC1C(OC(N)=O)C(O)C(Oc2ccc3c(O)c(NC(=O)c4ccc(O)c(CC=C(C)C)c4)c(=O)oc3c2C)OC1(C)C,IC50,second compound 0.0316 µM,5.34 µM
same,IC50,second compound 0.1 µM,3.9 µM
same,IC50,second compound 0.316 µM,4 µM
same,IC50,second compound 1 µM,4.58 µM
same,IC50,second compound 3.16 µM,5.93 µM
same,IC50,second compound 10 µM,3.8 µM
same,"viability, T/C",[1],96.7%
same,"viability, T/C",[2],81.8%
same,"viability, T/C",[3],67.8%
same,"viability, T/C",[4],61.6%
same,"viability, T/C",[5],56.2%
same,"viability, T/C",[6],44.4%
same,"viability, T/C",[7],93.7%
same,"viability, T/C",[8],85.5%
same,"viability, T/C",[9],72%
same,"viability, T/C",[10],59.2%
same,"viability, T/C",[11],53.8%
same,"viability, T/C",[12],43.1%
same,"viability, T/C",[13],92%
same,"viability, T/C",[14],84.4%
same,"viability, T/C",[15],75.7%
same,"viability, T/C",[16],59.8%
same,"viability, T/C",[17],54%
same,"viability, T/C",[18],41.9%
same,"viability, T/C",[19],100%
same,"viability, T/C",[20],87.5%
same,"viability, T/C",[21],71.3%
same,"viability, T/C",[22],58.9%
same,"viability, T/C",[23],58.2%
same,"viability, T/C",[24],42.3%
same,"viability, T/C",[25],92.5%
same,"viability, T/C",[26],81.4%
same,"viability, T/C",[27],69.8%
same,"viability, T/C",[28],64.1%
same,"viability, T/C",[29],53.5%
same,"viability, T/C",[30],46.5%
same,"viability, T/C",[31],90.6%
same,"viability, T/C",[32],80%
same,"viability, T/C",[33],64.7%
same,"viability, T/C",[34],60.5%
same,"viability, T/C",[35],54.4%
same,"viability, T/C",[36],42.1%
Nc1ccn(C2OC(CO)C(O)C2(F)F)c(=O)n1 (stereo unspecified) + COC1C(OC(N)=O)C(O)C(Oc2ccc3c(O)c(NC(=O)c4ccc(O)c(CC=C(C)C)c4)c(=O)oc3c2C)OC1(C)C,IC50,second compound 0.0316 µM,0.8 µM
same,IC50,second compound 0.1 µM,1.86 µM
same,IC50,second compound 0.316 µM,3.11 µM
same,IC50,second compound 1 µM,0.186 µM
same,IC50,second compound 3.16 µM,1.55 µM
same,IC50,second compound 10 µM,> 10 µM
same,"viability, T/C",[1],61.7%
same,"viability, T/C",[2],58.4%
same,"viability, T/C",[3],51.4%
same,"viability, T/C",[4],49.7%
same,"viability, T/C",[5],46.8%
same,"viability, T/C",[6],44.3%
same,"viability, T/C",[7],61.6%
same,"viability, T/C",[8],57.6%
same,"viability, T/C",[9],54%
same,"viability, T/C",[10],52.4%
same,"viability, T/C",[11],50.4%
same,"viability, T/C",[12],40%
same,"viability, T/C",[13],67.8%
same,"viability, T/C",[14],55%
same,"viability, T/C",[15],52.7%
same,"viability, T/C",[16],59.5%
same,"viability, T/C",[17],51.8%
same,"viability, T/C",[18],44%
same,"viability, T/C",[19],71.1%
same,"viability, T/C",[20],51.3%
same,"viability, T/C",[21],48.4%
same,"viability, T/C",[22],51.6%
same,"viability, T/C",[23],45.2%
same,"viability, T/C",[24],41.2%
same,"viability, T/C",[25],62.2%
same,"viability, T/C",[26],59.4%
same,"viability, T/C",[27],52.6%
same,"viability, T/C",[28],48.1%
same,"viability, T/C",[29],53.9%
same,"viability, T/C",[30],44.2%
same,"viability, T/C",[31],69.6%
same,"viability, T/C",[32],53.4%
same,"viability, T/C",[33],52.9%
same,"viability, T/C",[34],56.9%
same,"viability, T/C",[35],50.5%
same,"viability, T/C",[36],45.7%
O=c1[nH]cc(F)c(=O)[nH]1 + COC1C(OC(N)=O)C(O)C(Oc2ccc3c(O)c(NC(=O)c4ccc(O)c(CC=C(C)C)c4)c(=O)oc3c2C)OC1(C)C,IC50,second compound 0.0316 µM,> 10 µM
same,IC50,second compound 0.1 µM,> 10 µM
same,IC50,second compound 0.316 µM,> 10 µM
same,IC50,second compound 1 µM,> 10 µM
same,IC50,second compound 3.16 µM,> 10 µM
same,IC50,second compound 10 µM,> 10 µM
same,"viability, T/C",[1],103%
same,"viability, T/C",[2],104%
same,"viability, T/C",[3],91.6%
same,"viability, T/C",[4],95.6%
same,"viability, T/C",[5],89.4%
same,"viability, T/C",[6],80.5%
same,"viability, T/C",[7],117%
same,"viability, T/C",[8],96.3%
same,"viability, T/C",[9],101%
same,"viability, T/C",[10],97%
same,"viability, T/C",[11],88.4%
same,"viability, T/C",[12],67.5%
same,"viability, T/C",[13],99%
same,"viability, T/C",[14],91.9%
same,"viability, T/C",[15],103%
same,"viability, T/C",[16],93.8%
same,"viability, T/C",[17],80.3%
same,"viability, T/C",[18],73.6%
same,"viability, T/C",[19],119%
same,"viability, T/C",[20],108%
same,"viability, T/C",[21],100%
same,"viability, T/C",[22],92.7%
same,"viability, T/C",[23],89.6%
same,"viability, T/C",[24],71.8%
same,"viability, T/C",[25],104%
same,"viability, T/C",[26],94.1%
same,"viability, T/C",[27],92.3%
same,"viability, T/C",[28],98.8%
same,"viability, T/C",[29],83.5%
same,"viability, T/C",[30],73.8%
same,"viability, T/C",[31],113%
same,"viability, T/C",[32],86.8%
same,"viability, T/C",[33],92.9%
same,"viability, T/C",[34],96.4%
same,"viability, T/C",[35],83.2%
same,"viability, T/C",[36],70.8%
